The target in the test is T1, CAMK1 (CaMK1) (Homo sapiens, UniProt Q14012).
T1 construct: purchased Thermo Fisher Scientific (Life Technologies) SelectScreen
Nature of the test: SelectScreen Adapta. The class given is biochemical. Particulars: ATP 10 µM. In outline:
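NU5455 was profiled across the SelectScreen Broad panel of kinase activity and binding assays. Z'LYTE reactions such as CSF1R ran at apparent Km ATP, while the Adapta CAMK1 assay used ATP listed as 10. Values are given as percent.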

Molecules are shown by their SMILES.

T1 sequence (Q14012 whole entry): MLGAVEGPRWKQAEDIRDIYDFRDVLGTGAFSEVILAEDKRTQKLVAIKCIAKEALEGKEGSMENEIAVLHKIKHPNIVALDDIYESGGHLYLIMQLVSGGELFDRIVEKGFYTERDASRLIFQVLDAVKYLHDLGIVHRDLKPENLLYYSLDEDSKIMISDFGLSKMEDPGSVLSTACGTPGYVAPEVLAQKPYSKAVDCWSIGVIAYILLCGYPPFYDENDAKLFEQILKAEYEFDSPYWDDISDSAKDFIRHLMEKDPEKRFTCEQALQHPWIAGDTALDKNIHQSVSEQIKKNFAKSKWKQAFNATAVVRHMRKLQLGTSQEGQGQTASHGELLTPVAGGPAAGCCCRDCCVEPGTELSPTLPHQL

For the molecule `CN(C(=O)CN1CCOCC1)c1ccc2sc3c(-c4cccc5c(=O)cc(N6CC7CCC(C6)O7)oc45)cccc3c2c1` [NU5455], the inhibition at 1 µM turned out to be 0.8%.

As usually defined, the inhibition is the drop in the measured response relative to a control, in per cent. High values mean a response far below the control, low ones a response near the control.

The values are drawn from publication PMC6934184, “Selective DNA-PKcs inhibition extends the therapeutic index of localized radiotherapy and chemotherapy” (The Journal of Clinical Investigation, 2019).
